In PubChem BioAssay (NCI):
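Tested at 5 concentrations; 48 h exposure; 96-well plates; endpoints linearly interpolated, else capped at highest concentration. GI50 = concentration required for 50% inhibition of growth. TGI: total growth inhibition.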

Key:
Experiment in all cases: NCI anticancer screen, dose series, 48 h
SNB-19 CNS = test system: SNB-19 CNS
HL-60(TB) leukemia = test system: HL-60(TB) leukemia
CAKI-1 renal = test system: CAKI-1 renal
LOX IMVI melanoma = test system: LOX IMVI melanoma
SF-268 CNS = test system: SF-268 CNS
T-47D breast = test system: T-47D breast
SF-295 CNS = test system: SF-295 CNS
EKVX NSCLC = test system: EKVX NSCLC
TK-10 renal = test system: TK-10 renal
ACHN renal = test system: ACHN renal
MCF7 breast = test system: MCF7 breast
NCI-H226 lung = test system: NCI-H226 lung
HCT-116 colon = test system: HCT-116 colon
IGROV1 ovarian = test system: IGROV1 ovarian
NCI-H23 lung = test system: NCI-H23 lung
SK-OV-3 ovarian = test system: SK-OV-3 ovarian
PC-3 prostate = test system: PC-3 prostate
SF-539 CNS = test system: SF-539 CNS
K-562 leukemia = test system: K-562 leukemia
U251 CNS = test system: U251 CNS
SK-MEL-28 melanoma = test system: SK-MEL-28 melanoma
SN12C renal = test system: SN12C renal
KM12 colon = test system: KM12 colon
786-0 renal = test system: 786-0 renal
COLO 205 colon = test system: COLO 205 colon
MDA-MB-231 breast = test system: MDA-MB-231 breast
HCC-2998 colon = test system: HCC-2998 colon
CCRF-CEM leukemia = test system: CCRF-CEM leukemia
HOP-62 NSCLC = test system: HOP-62 NSCLC
A498 renal = test system: A498 renal
NCI-H460 lung = test system: NCI-H460 lung
BT-549 breast = test system: BT-549 breast
MALME-3M melanoma = test system: MALME-3M melanoma
SK-MEL-2 melanoma = test system: SK-MEL-2 melanoma
OVCAR-8 ovarian = test system: OVCAR-8 ovarian
DU-145 prostate = test system: DU-145 prostate
SK-MEL-5 melanoma = test system: SK-MEL-5 melanoma
RXF 393 renal = test system: RXF 393 renal
MOLT-4 leukemia = test system: MOLT-4 leukemia
UACC-62 melanoma = test system: UACC-62 melanoma
M14 melanoma = test system: M14 melanoma
UACC-257 melanoma = test system: UACC-257 melanoma
A549 NSCLC = test system: A549 NSCLC
HOP-92 NSCLC = test system: HOP-92 NSCLC
HT29 colon = test system: HT29 colon
SNB-75 CNS = test system: SNB-75 CNS
SW-620 colon = test system: SW-620 colon
HS 578T breast = test system: HS 578T breast
NCI-H522 lung = test system: NCI-H522 lung
OVCAR-3 ovarian = test system: OVCAR-3 ovarian
NCI/ADR-RES ovarian = test system: NCI/ADR-RES ovarian
HCT-15 colon = test system: HCT-15 colon
OVCAR-4 ovarian = test system: OVCAR-4 ovarian
MDA-MB-435 = test system: MDA-MB-435
UO-31 renal = test system: UO-31 renal
OVCAR-5 ovarian = test system: OVCAR-5 ovarian
RPMI-8226 leukemia = test system: RPMI-8226 leukemia

SMILES: O=C1Cc2cc3ccccc3nc2-c2ccccc2N1
- TGI (SNB-19 CNS): > 100 µM
- TGI (HL-60(TB) leukemia): > 100 µM
- TGI (CAKI-1 renal): > 100 µM
- TGI (LOX IMVI melanoma): > 100 µM
- TGI (SF-268 CNS): > 100 µM
- TGI (T-47D breast): > 100 µM
- TGI (SF-295 CNS): > 100 µM
- TGI (EKVX NSCLC): > 100 µM
- TGI (TK-10 renal): > 100 µM
- TGI (ACHN renal): > 100 µM
- TGI (MCF7 breast): > 100 µM
- TGI (NCI-H226 lung): > 100 µM
- TGI (HCT-116 colon): 62.2 µM
- TGI (IGROV1 ovarian): > 100 µM
- TGI (NCI-H23 lung): > 100 µM
- TGI (SK-OV-3 ovarian): > 100 µM
- TGI (PC-3 prostate): > 100 µM
- TGI (SF-539 CNS): > 100 µM
- TGI (K-562 leukemia): > 100 µM
- TGI (U251 CNS): > 100 µM
- TGI (SK-MEL-28 melanoma): > 100 µM
- TGI (SN12C renal): > 100 µM
- TGI (KM12 colon): > 100 µM
- TGI (786-0 renal): > 100 µM
- TGI (COLO 205 colon): > 100 µM
- TGI (MDA-MB-231 breast): > 100 µM
- TGI (HCC-2998 colon): 90.4 µM
- TGI (CCRF-CEM leukemia): > 100 µM
- TGI (HOP-62 NSCLC): > 100 µM
- TGI (A498 renal): > 100 µM
- TGI (NCI-H460 lung): > 100 µM
- TGI (BT-549 breast): > 100 µM
- TGI (MALME-3M melanoma): > 100 µM
- TGI (SK-MEL-2 melanoma): > 100 µM
- TGI (OVCAR-8 ovarian): > 100 µM
- TGI (DU-145 prostate): > 100 µM
- TGI (SK-MEL-5 melanoma): > 100 µM
- TGI (RXF 393 renal): > 100 µM
- TGI (MOLT-4 leukemia): > 100 µM
- TGI (UACC-62 melanoma): > 100 µM
- TGI (M14 melanoma): > 100 µM
- TGI (UACC-257 melanoma): > 100 µM
- TGI (A549 NSCLC): > 100 µM
- TGI (HOP-92 NSCLC): > 100 µM
- TGI (HT29 colon): > 100 µM
- TGI (SNB-75 CNS): 65.7 µM
- TGI (SW-620 colon): > 100 µM
- TGI (HS 578T breast): > 100 µM
- TGI (NCI-H522 lung): > 100 µM
- TGI (OVCAR-3 ovarian): > 100 µM
- TGI (NCI/ADR-RES ovarian): > 100 µM
- TGI (HCT-15 colon): > 100 µM
- TGI (OVCAR-4 ovarian): > 100 µM
- TGI (MDA-MB-435): > 100 µM
- TGI (UO-31 renal): > 100 µM
- TGI (OVCAR-5 ovarian): > 100 µM

SMILES: COc1cc(N=Nc2cc(Cc3ccc(N(C)C)cc3)c(N)cc2N(C)C)c2ncccc2c1
- GI50 (SNB-19 CNS): 0.577 µM
- TGI (SNB-19 CNS): 3.71 µM
- GI50 (HL-60(TB) leukemia): 0.267 µM
- TGI (HL-60(TB) leukemia): 1.36 µM
- GI50 (CAKI-1 renal): 0.408 µM
- TGI (CAKI-1 renal): 2.37 µM
- GI50 (LOX IMVI melanoma): 0.465 µM
- TGI (LOX IMVI melanoma): 1.87 µM
- GI50 (SF-268 CNS): 0.593 µM
- TGI (SF-268 CNS): 2.31 µM
- GI50 (T-47D breast): 0.211 µM
- TGI (T-47D breast): 2 µM
- GI50 (SF-295 CNS): 0.618 µM
- TGI (SF-295 CNS): 2 µM
- GI50 (EKVX NSCLC): 0.332 µM
- TGI (EKVX NSCLC): 1.98 µM
- GI50 (TK-10 renal): 1.62 µM
- TGI (TK-10 renal): 4.36 µM
- GI50 (ACHN renal): 0.233 µM
- TGI (ACHN renal): 1.69 µM
- GI50 (MCF7 breast): 0.21 µM
- TGI (MCF7 breast): 0.855 µM
- GI50 (NCI-H226 lung): 0.754 µM
- TGI (NCI-H226 lung): 8.28 µM
- GI50 (HCT-116 colon): 0.0426 µM
- TGI (HCT-116 colon): 1.19 µM
- GI50 (IGROV1 ovarian): 0.364 µM
- TGI (IGROV1 ovarian): 1.57 µM
- GI50 (NCI-H23 lung): 0.287 µM
- TGI (NCI-H23 lung): 1.34 µM
- GI50 (SK-OV-3 ovarian): 0.406 µM
- TGI (SK-OV-3 ovarian): 8.17 µM
- GI50 (PC-3 prostate): 0.293 µM
- TGI (PC-3 prostate): 3.03 µM
- GI50 (SF-539 CNS): 0.705 µM
- TGI (SF-539 CNS): 2.06 µM
- GI50 (RPMI-8226 leukemia): 0.313 µM
- TGI (RPMI-8226 leukemia): 2.1 µM
- GI50 (K-562 leukemia): 0.139 µM
- TGI (K-562 leukemia): 1.74 µM
- GI50 (U251 CNS): 0.466 µM
- TGI (U251 CNS): 1.94 µM
- GI50 (SK-MEL-28 melanoma): 0.745 µM
- TGI (SK-MEL-28 melanoma): 2.2 µM
- GI50 (SN12C renal): 0.649 µM
- TGI (SN12C renal): 2.32 µM
- GI50 (KM12 colon): 0.646 µM
- TGI (KM12 colon): 2.31 µM
- GI50 (786-0 renal): 1.01 µM
- TGI (786-0 renal): 2.25 µM
- GI50 (COLO 205 colon): 0.176 µM
- TGI (COLO 205 colon): 1.21 µM
- GI50 (MDA-MB-231 breast): 0.512 µM
- TGI (MDA-MB-231 breast): 2.17 µM
- GI50 (HCC-2998 colon): 1.16 µM
- TGI (HCC-2998 colon): 2.66 µM
- GI50 (CCRF-CEM leukemia): 0.126 µM
- TGI (CCRF-CEM leukemia): 2.29 µM
- GI50 (A498 renal): 0.809 µM
- TGI (A498 renal): 3.07 µM
- GI50 (NCI-H460 lung): 0.519 µM
- TGI (NCI-H460 lung): 1.91 µM
- GI50 (BT-549 breast): 1.41 µM
- TGI (BT-549 breast): 5.63 µM
- GI50 (MALME-3M melanoma): 0.621 µM
- TGI (MALME-3M melanoma): 2.28 µM
- GI50 (SK-MEL-2 melanoma): 0.562 µM
- TGI (SK-MEL-2 melanoma): 4.17 µM
- GI50 (OVCAR-8 ovarian): 0.387 µM
- TGI (OVCAR-8 ovarian): 2.19 µM
- GI50 (DU-145 prostate): 0.59 µM
- TGI (DU-145 prostate): 2.17 µM
- GI50 (SK-MEL-5 melanoma): 0.227 µM
- TGI (SK-MEL-5 melanoma): 0.714 µM
- GI50 (RXF 393 renal): 1.08 µM
- TGI (RXF 393 renal): 2.49 µM
- GI50 (MOLT-4 leukemia): 0.185 µM
- TGI (MOLT-4 leukemia): 1.22 µM
- GI50 (UACC-62 melanoma): 0.42 µM
- TGI (UACC-62 melanoma): 1.83 µM
- GI50 (M14 melanoma): 0.34 µM
- TGI (M14 melanoma): 1.58 µM
- GI50 (UACC-257 melanoma): 0.438 µM
- TGI (UACC-257 melanoma): 5.22 µM
- GI50 (A549 NSCLC): 0.494 µM
- TGI (A549 NSCLC): 2.39 µM
- GI50 (HOP-92 NSCLC): 0.266 µM
- TGI (HOP-92 NSCLC): 1.5 µM
- GI50 (HT29 colon): 0.0607 µM
- TGI (HT29 colon): 2.4 µM
- GI50 (SNB-75 CNS): 0.574 µM
- TGI (SNB-75 CNS): 2.04 µM
- GI50 (SW-620 colon): 0.374 µM
- TGI (SW-620 colon): 2.16 µM
- GI50 (HS 578T breast): 0.473 µM
- TGI (HS 578T breast): 2.35 µM
- GI50 (NCI-H522 lung): 0.398 µM
- TGI (NCI-H522 lung): 2.23 µM
- GI50 (OVCAR-3 ovarian): 0.0406 µM
- TGI (OVCAR-3 ovarian): 1.08 µM
- GI50 (NCI/ADR-RES ovarian): 0.338 µM
- TGI (NCI/ADR-RES ovarian): 1.57 µM
- GI50 (HCT-15 colon): 0.195 µM
- TGI (HCT-15 colon): 1.99 µM
- GI50 (OVCAR-4 ovarian): 0.175 µM
- TGI (OVCAR-4 ovarian): 0.549 µM
- GI50 (MDA-MB-435): 0.515 µM
- TGI (MDA-MB-435): 2.07 µM
- GI50 (UO-31 renal): 0.252 µM
- TGI (UO-31 renal): 1.97 µM
- GI50 (OVCAR-5 ovarian): 0.801 µM
- TGI (OVCAR-5 ovarian): 2.66 µM
